US10172863B2, “Purine derivatives useful as HSP90 inhibitors” (Sloan-Kettering Institute for Cancer Research, priority 2009, dated 2019)

Tested on: SKBr3 cell Hsp90
Assay: EC50 for Hsp90 binding in SKBr3 cell lysate
Conditions: read-out: EC50, binding to SKBr3 cell Hsp90

Row | SMILES | EC50
1 | CC(C)NCCCn1c(Sc2cc3c(cc2-c2ccc[nH]2)OCO3)nc2c(N)ncnc21 [Compound 4H-1, 8-(6-(1H-pyrrol-2-yl)benzo[d][1,3]dioxol-5-ylthio)-9-(3-(isopropylamino)propyl)-9H-purin-6-amine] | 740 nM
2 | CC(C)NCCCn1c(Sc2cc3c(cc2-c2ccncc2)OCO3)nc2c(N)ncnc21 [Compound 4F-1, 9-(3-(isopropylamino)propyl)-8-(6-(pyridin-4-yl)benzo[d][1,3]dioxol-5-ylthio)-9H-purin-6-amine] | 9620 nM
3 | CC(C)NCCCn1c(Sc2cc3c(cc2-c2ccc(C=O)o2)OCO3)nc2c(N)ncnc21 [Compound 4C-6, 5-(6-(6-amino-9-(3-(isopropylamino)propyl)-9H-purin-8-ylthio)benzo[d][1,3]dioxol-5-yl)furan-2-carbaldehyde] | 141 nM
4 | CC(C)NCCCn1c(Sc2cc3c(cc2-c2ncco2)OCO3)nc2c(N)ncnc21 [Compound 4C-38, 9-(3-(isopropylamino)propyl)-8-(6-(oxazol-2-yl)benzo[d][1,3]dioxol-5-ylthio)-9H-purin-6-amine] | 7.9 nM
5 | CC(C)NCCCn1c(Sc2cc3c(cc2-c2cc[nH]n2)OCO3)nc2c(N)ncnc21 [Compound 4G-6, 8-(6-(1H-pyrazol-3-yl)benzo[d][1,3]dioxol-5-ylthio)-9-(3-(isopropylamino)propyl)-9H-purin-6-amine] | 5.5 nM
6 | CC(C)NCCCn1c(Sc2cc3c(cc2-c2ccnn2C)OCO3)nc2c(N)ncnc21 [Compound 4G-4, 9-(3-(isopropylamino)propyl)-8-(6-(1-methyl-1H-pyrazol-5-yl)benzo[d][1,3]dioxol-5-ylthio)-9H-purin-6-amine] | > 300 nM
7 | CC(C)NCCCn1c(Sc2cc3c(cc2C2C=COC2)OCO3)nc2c(N)ncnc21 (stereo not drawn) [Compound 4C-41, 8-(6-(2,3-dihydrofuran-3-yl)benzo[d][1,3]dioxol-5-ylthio)-9-(3-(isopropylamino)propyl)-9H-purin-6-amine] | 2080 nM
8 | CC(C)(C)CNCCn1c(Sc2cc3c(cc2-c2ccoc2)OCO3)nc2c(N)ncnc21 [Compound 4C-14, 8-(6-(furan-3-yl)benzo[d][1,3]dioxol-5-ylthio)-9-(2-(neopentylamino)ethyl)-9H-purin-6-amine] | 10.1 nM

Second part, the molecule after the results:

Row | EC50 | SMILES
9 | 34.8 nM | CC(C)(C)CNCCN1C(Sc2cc3c(cc2I)OCCO3)=NC2C(N)=NC=NC21 (stereo not drawn) [Compound 5A-3, 8-(7-Iodo-2,3-dihydrobenzo[b][1,4]dioxin-6-ylthio)-9-(2-(neopentylamino)ethyl)-5,9-dihydro-4H-purin-6-amine]
10 | 47 nM | CC(C)NCCCn1c(Sc2cc3c(cc2-c2nccs2)OCO3)nc2c(N)ncnc21 [Compound 4D-16, 9-(3-(isopropylamino)propyl)-8-(6-(thiazol-2-yl)benzo[d][1,3]dioxol-5-ylthio)-9H-purin-6-amine]
11 | 34.6 nM | CC(C)CNCCN1C(Sc2cc3c(cc2I)OCCO3)=NC2C(N)=NC=NC21 (stereo not drawn) [Compound 5A-2, 8-(7-Iodo-2,3-dihydrobenzo[b][1,4]dioxin-6-ylthio)-9-(2-(isobutylamino)ethyl)-5,9-dihydro-4H-purin-6-amine]
12 | 10.2 nM | Cc1ccc(-c2cc3c(cc2Sc2nc4c(N)ncnc4n2CCNCC(C)(C)C)OCO3)o1 [Compound 4C-16, 8-(6-(5-methylfuran-2-yl)benzo[d][1,3]dioxol-5-ylthio)-9-(2-(neopentylamino)ethyl)-9H-purin-6-amine]
13 | 24.6 nM | CC(C)(C)CNCCn1c(Sc2cc3c(cc2-c2cc[nH]c2)OCO3)nc2c(N)ncnc21 [Compound 4H-4, 8-(6-(1H-pyrrol-3-yl)benzo[d][1,3]dioxol-5-ylthio)-9-(2-(neopentylamino)ethyl)-9H-purin-6-amine]
14 | 62.8 nM | Nc1ncnc2c1nc(Sc1cc3c(cc1I)OCCO3)n2CCCn1ccnc1 [Compound 5A-4, 9-(3-(1H-imidazol-1-yl)propyl)-8-(7-iodo-2,3-dihydrobenzo[b][1,4]dioxin-6-ylthio)-9H-purin-6-amine]
15 | > 300 nM | CC(C)NCCCn1c(Sc2cc3c(cc2-c2cnoc2)OCO3)nc2c(N)ncnc21 [Compound 4C-10, 9-(3-(isopropylamino)propyl)-8-(6-(isoxazol-4-yl)benzo[d][1,3]dioxol-5-ylthio)-9H-purin-6-amine]
16 | 1020 nM | CC(C)NCCCn1c(Sc2cc3c(cc2-c2cn[nH]c2)OCO3)nc2c(N)ncnc21 [Compound 4G-1, 8-(6-(1H-pyrazol-4-yl)benzo[d][1,3]dioxol-5-ylthio)-9-(3-(isopropylamino)propyl)-9H-purin-6-amine]
17 | 6240 nM | CC(C)NCCCn1c(Sc2cc3c(cc2-c2ccc(C(C)(C)C)cc2)OCO3)nc2c(N)ncnc21 [Compound 4A-2, 8-(6-(4-tert-butylphenyl)benzo[d][1,3]dioxol-5-ylthio)-9-(3-(isopropylamino)propyl)-9H-purin-6-amine]
18 | 97 nM | CC(C)NCCCn1c(Sc2cc3ccccc3cc2I)nc2c(N)ncnc21 [Compound 6B-25, 8-(3-iodonaphthalen-2-ylthio)-9-(3-(isopropylamino)propyl)-9H-purin-6-amine]
